The values that follow come from patent EP3040345A1, “Sodium channel subunits of pollinator insects and uses thereof” (Centre National de la Recherche Scientifique (CNRS), priority 2014, dated 2016).

pEC50: −log10 of the molar value. “And” between values parts separate entries of the source, which are not always exact repeats. Identical values can stand only once. “Also recorded” adds a separate entry of the source.

For orientation: Hill coefficient means the slope factor of the fitted curve.

One test addresses honeybee Para channel (Apis mellifera, UniProt C9D7C5). Put plainly: Two-microelectrode voltage-clamp of Xenopus oocytes co-expressing Para channel and TipE; pyrethroid-induced tail currents. It is filed as cell-based. Conditions: for tail current induction: after conditioning pulses (-80mV to -20mV, 100 Hz), Para + TipE; for Hill coefficient: Hill fit of dose-response curve of tail current. The method, then:
Xenopus oocytes were handled in accordance with the principles and guidelines of the Université Laval animal protection committee and the Canadian Council on Animal Care. […] They were then treated with 2 mg/ml collagenase (Collagenase type 1A from Clostridium histolyticum, Sigma) in OR2 solution for 1 h. They were then incubated for at least 1 h at 18°C in OR3 solution. Stage IV and V oocytes were microinjected with mRNA corresponding to the Para channel and the selected regulatory subunit (1 µg/µl for Para and 0.3 µg/µl for regulatory subunits, 50 nl/oocyte). The injected oocytes were incubated at 18°C in OR3 solution for at least 12 h before taking recordings.
Macroscopic currents from mRNA-injected oocytes were recorded in Ringer's solution using the two-microelectrode voltage-clamp technique. The membrane potential for the two-microelectrode voltage-clamp technique was controlled using a Warner oocyte clamp (Warner Instrument Corp.). The currents were filtered at 5 kHz (-3 dB; four-pole Bessel filter). The headstage of the Warner amplifier was attached to a plastic pool containing a 3M NaCl solution through a silver chloride wire connected to the bath solution using an agar bridge. The bridge contained 3% agar (w/v), 500 mM NMDG, and 10 mM HEPES (pH 7.4) and was threaded with a thin platinum/iridium wire to lower high-frequency impedance.
The pH was adjusted to 7.6 at 22°C using 1 M NaOH.
The dose-response curves obtained from these calculations were fitted to a Hill curve using the following equation: M = (MMax)/(1 + ((EC50/dose))^h), [formula] where h is the Hill coefficient, Mmax is the maximal fraction of channels affected, EC50 is the half-maximal effective concentration, and dose is the concentration at which the observation was made.
Current decay and tail current kinetics were fitted to the following equation when a single exponential was used: [formula] and to the following equation when double exponential was used: [formula] where y0 is the initial value, A is the weight of the exponential, and τ is the time constant of the exponential.

Test [1] concerns the target sodium current of honeybee antennal olfactory receptor neurons. Conditions: Kadala A et al. 2011; cited from earlier work.
The next test has as its target drosophila Para channel (Drosophila melanogaster, UniProt P35500). Conditions: read-out: EC50 for the drosophila channel; Vais H et al. 2003, ATX-II used to inhibit inactivation; cited from earlier work.

Chain of honeybee Para channel (C9D7C5 1-2044): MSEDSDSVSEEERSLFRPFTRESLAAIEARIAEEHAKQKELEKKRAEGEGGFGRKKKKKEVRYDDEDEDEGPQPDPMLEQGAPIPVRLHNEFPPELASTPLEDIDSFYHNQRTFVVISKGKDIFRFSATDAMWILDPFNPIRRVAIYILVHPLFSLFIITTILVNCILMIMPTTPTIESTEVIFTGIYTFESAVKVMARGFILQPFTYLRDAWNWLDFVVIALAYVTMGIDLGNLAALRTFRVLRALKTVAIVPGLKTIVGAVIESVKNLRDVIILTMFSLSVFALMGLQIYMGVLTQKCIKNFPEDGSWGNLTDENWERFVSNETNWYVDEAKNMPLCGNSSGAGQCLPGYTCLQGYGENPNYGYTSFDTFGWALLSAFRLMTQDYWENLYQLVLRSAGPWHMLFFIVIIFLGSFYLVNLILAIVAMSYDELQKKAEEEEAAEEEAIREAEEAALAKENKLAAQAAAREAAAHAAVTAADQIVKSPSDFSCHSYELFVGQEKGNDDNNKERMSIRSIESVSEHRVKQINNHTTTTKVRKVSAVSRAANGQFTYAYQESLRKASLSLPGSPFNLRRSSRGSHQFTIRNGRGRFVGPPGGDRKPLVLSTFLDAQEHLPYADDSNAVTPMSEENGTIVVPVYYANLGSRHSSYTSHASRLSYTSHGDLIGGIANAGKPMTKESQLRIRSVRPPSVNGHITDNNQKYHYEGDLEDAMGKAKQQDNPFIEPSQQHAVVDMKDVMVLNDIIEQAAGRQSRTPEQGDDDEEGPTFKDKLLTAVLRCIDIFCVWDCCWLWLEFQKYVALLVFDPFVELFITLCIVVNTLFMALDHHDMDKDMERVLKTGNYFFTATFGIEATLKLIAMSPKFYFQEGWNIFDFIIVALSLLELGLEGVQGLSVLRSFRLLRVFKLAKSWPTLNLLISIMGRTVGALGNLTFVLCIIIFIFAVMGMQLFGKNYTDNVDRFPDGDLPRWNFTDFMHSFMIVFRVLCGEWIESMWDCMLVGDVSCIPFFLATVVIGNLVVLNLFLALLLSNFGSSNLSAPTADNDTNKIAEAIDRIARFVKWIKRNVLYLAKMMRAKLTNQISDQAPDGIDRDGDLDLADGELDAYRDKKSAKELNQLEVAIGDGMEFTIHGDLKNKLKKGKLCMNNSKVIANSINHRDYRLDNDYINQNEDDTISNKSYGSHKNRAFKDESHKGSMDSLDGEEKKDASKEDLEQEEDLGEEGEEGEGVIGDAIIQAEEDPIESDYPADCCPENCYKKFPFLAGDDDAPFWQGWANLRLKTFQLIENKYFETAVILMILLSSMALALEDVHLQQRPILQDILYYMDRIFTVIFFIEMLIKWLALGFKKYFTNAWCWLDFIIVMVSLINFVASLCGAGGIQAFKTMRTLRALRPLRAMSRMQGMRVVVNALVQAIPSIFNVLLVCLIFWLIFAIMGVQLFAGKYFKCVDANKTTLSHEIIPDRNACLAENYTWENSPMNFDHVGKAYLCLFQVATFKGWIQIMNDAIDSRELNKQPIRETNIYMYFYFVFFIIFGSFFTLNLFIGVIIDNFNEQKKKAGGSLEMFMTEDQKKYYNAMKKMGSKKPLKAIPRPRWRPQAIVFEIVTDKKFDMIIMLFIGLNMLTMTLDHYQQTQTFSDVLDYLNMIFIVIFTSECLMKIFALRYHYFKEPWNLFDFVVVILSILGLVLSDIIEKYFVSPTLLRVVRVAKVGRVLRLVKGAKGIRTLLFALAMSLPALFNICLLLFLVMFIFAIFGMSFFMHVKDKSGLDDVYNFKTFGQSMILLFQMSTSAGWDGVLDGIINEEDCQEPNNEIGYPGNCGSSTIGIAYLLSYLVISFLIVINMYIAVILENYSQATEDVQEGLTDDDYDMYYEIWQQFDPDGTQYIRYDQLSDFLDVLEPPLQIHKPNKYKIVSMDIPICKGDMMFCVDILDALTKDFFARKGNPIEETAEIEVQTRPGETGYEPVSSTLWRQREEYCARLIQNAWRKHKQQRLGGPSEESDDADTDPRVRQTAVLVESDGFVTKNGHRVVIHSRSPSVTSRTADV
Chain of drosophila Para channel (P35500 whole entry): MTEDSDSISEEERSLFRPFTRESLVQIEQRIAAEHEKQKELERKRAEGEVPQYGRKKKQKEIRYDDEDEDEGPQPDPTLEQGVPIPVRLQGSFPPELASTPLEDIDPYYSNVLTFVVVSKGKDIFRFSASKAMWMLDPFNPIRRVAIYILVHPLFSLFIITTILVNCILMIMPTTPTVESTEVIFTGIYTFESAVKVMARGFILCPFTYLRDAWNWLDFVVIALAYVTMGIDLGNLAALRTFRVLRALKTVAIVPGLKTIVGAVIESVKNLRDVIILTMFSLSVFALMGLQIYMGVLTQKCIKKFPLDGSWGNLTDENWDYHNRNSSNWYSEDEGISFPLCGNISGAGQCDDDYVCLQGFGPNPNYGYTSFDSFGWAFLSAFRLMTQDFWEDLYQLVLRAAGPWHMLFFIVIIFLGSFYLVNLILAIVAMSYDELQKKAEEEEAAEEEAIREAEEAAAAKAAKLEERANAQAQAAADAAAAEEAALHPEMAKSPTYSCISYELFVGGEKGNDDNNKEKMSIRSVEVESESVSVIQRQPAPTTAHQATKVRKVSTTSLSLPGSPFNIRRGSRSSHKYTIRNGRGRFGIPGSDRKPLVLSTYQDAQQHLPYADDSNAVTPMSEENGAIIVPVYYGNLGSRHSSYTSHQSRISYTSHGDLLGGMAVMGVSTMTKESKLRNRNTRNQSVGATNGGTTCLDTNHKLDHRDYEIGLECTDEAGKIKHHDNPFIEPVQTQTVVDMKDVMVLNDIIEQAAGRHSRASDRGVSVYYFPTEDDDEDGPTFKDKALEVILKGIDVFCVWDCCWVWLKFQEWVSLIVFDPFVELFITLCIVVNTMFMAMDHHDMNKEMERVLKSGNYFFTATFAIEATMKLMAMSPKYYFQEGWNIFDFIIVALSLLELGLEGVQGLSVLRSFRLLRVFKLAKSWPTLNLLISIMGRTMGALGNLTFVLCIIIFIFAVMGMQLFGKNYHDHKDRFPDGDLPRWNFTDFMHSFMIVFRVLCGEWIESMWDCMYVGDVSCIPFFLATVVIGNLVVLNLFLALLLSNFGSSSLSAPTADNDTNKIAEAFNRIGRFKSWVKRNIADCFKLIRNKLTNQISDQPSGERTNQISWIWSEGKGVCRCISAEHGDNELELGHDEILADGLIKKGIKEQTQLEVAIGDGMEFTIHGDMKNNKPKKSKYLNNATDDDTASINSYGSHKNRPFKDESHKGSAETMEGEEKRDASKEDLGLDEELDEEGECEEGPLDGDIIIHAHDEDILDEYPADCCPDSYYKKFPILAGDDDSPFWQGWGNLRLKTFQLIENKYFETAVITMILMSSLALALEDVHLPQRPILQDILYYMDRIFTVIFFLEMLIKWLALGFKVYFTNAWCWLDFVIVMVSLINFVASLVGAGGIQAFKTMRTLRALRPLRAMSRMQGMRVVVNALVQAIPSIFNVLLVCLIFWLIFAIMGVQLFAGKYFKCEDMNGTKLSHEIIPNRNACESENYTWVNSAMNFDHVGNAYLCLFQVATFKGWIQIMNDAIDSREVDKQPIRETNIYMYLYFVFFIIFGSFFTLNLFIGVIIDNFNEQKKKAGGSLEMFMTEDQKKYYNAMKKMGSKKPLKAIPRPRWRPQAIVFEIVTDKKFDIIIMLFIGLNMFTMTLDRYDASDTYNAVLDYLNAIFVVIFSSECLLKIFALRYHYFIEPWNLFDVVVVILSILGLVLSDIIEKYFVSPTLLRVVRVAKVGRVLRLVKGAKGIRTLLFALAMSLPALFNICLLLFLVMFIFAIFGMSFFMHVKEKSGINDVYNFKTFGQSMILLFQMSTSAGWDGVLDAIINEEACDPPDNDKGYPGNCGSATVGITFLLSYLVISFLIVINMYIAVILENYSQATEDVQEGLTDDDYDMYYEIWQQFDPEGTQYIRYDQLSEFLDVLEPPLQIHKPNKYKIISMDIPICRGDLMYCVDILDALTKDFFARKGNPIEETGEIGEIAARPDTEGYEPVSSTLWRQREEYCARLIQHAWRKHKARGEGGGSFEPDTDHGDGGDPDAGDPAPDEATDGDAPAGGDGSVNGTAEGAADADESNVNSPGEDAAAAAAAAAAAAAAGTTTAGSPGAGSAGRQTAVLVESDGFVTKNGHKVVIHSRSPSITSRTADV

As for `CC(C)C(C(=O)OC(C#N)c1cccc(Oc2ccccc2)c1)c1ccc(Cl)cc1` (centres unmarked) [fenvalerate], the tail current induction result at honeybee Para channel (10 µM) is given as “induced a tail current”. Also, the Hill coefficient on honeybee Para channel is 1.1817 and 1.18. On honeybee Para channel (double exponential fit), the “relative weight of the slow component of tail current deactivation” value was determined as 85.4%; the “time constant of tail current deactivation, first exponential” value amounted to 9.9 s; the “time constant of tail current deactivation, second exponential” value was 31.8 s. Also, the pEC50 at honeybee Para channel (fraction of channels bound vs dose, Hill fit, 1700 conditioning pulses, Para + TipE in oocytes, read-out: half maximal effective concentration (EC50)) was 6.54 and ~6.54.

For `CC1(C)C(C=C(Cl)Cl)C1C(=O)OCc1cccc(Oc2ccccc2)c1` (centres unmarked) [permethrin], the “shifts in activation, inactivation, or recovery from inactivation” value on honeybee Para channel (10 µM in extracellular medium, Para co-expressed with TipE) was “no significant effect; also recorded: did not induce statistically significant shifts”. Also, the tail current induction result at honeybee Para channel (10 µM) is on record as “induced tail currents”. Moreover, at honeybee Para channel (10 µM, tail current amplitude), the “number of conditioning pulses at which the maximal effect is reached” value is on record as 200 pulses. At honeybee Para channel, the Hill coefficient is 0.8263 and 0.83. Further, at honeybee Para channel (single exponential fit), the “time constant of deactivation of tail currents (single exponential)” value amounted to 0.93 s. Further, on honeybee Para channel (tail current after 200 conditioning pulses, linear voltage-dependence), the “inversion (reversal potential) of tail current” value was “approximately +10 mV”. The pEC50 in test [1] was 5.46; at drosophila Para channel, 7.92.
